Patent US20240132431A1, “METHOD FOR ALKYLATING ACIDIC FUNCTIONAL GROUP” (Chugai Seiyaku Kabushiki Kaisha, priority 2021, published 2024)

Target: T1, Bcl-2 protein (Recombinant Human Bcl-2 Protein) (Homo sapiens, UniProt P10415)
T1 construct: purchased Novus NBP2-34889
Experiment: Binding evaluation of mixture library compounds to Bcl-2 using AS-MS (affinity selection mass spectrometry)
Outline: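 Bcl-2 binding is scored from LC/MS signal retained with protein through gel-filtration spin columns, normalised to unfiltered and protein-free controls. Incubation: 20 μM protein, […] per compound, 1 h, 23° C.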

T1 sequence (P10415 whole entry): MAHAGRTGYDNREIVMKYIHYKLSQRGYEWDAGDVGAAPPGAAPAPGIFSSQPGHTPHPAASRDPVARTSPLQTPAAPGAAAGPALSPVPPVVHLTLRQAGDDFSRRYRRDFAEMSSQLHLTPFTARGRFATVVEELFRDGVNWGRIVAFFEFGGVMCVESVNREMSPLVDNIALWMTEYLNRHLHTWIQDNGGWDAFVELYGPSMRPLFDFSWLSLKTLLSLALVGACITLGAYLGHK

| SMILES | ASMS ratio (%) (n = 1) | ASMS ratio (%) (n = 2) |
| --- | --- | --- |
| CCOc1cccc(-c2cc(CN3CCN(c4ccc(C(=O)NS(C)(=O)=O)cc4)CC3)cc(OC(F)(F)F)c2)c1 [B2I063-01, 4-[4-[[3-(3-Ethoxyphenyl)-5-(trifluoromethoxy)phenyl]methyl]piperazin-1-yl]-N-methylsulfonylbenzamide] | 0.9% | 0.0% |
| CCOc1cncc(-c2cc(CN3CCN(c4ccc(C(=O)NS(C)(=O)=O)cc4)CC3)cc(OC(F)(F)F)c2)c1 [B2I064-01, 4-[4-[[3-(5-Ethoxypyridin-3-yl)-5-(trifluoromethoxy)phenyl]methyl]piperazin-1-yl]-N-methylsulfonylbenzamide] | 0.0% | 0.0% |
| CCOc1cccc(-c2ccc(CN3CCN(c4ccc(C(=O)NS(C)(=O)=O)cc4)CC3)c3ccccc23)c1 [B2I065-01, 4-[4-[[4-(3-Ethoxyphenyl)naphthalen-1-yl]methyl]piperazin-1-yl]-N-methylsulfonylbenzamide] | 0.0% | 0.0% |
| CCOc1cncc(-c2ccc(CN3CCN(c4ccc(C(=O)NS(C)(=O)=O)cc4)CC3)c3ccccc23)c1 [B2I066-01, 4-[4-[[4-(5-Ethoxypyridin-3-yl)naphthalen-1-yl]methyl]piperazin-1-yl]-N-methylsulfonylbenzamide] | 0.0% | 0.0% |
| CCOc1cccc(-c2csc(CN3CCN(c4ccc(C(=O)NS(C)(=O)=O)cc4)CC3)c2)c1 [B2I067-01, 4-[4-[[4-(3-Ethoxyphenyl)thiophen-2-yl]methyl]piperazin-1-yl]-N-methylsulfonylbenzamide] | 0.0% | 0.0% |
| CCOc1cncc(-c2csc(CN3CCN(c4ccc(C(=O)NS(C)(=O)=O)cc4)CC3)c2)c1 [B2I068-01] | 0.0% | 0.0% |
| CCOc1cccc(C#Cc2ccccc2CN2CCN(c3ccc(C(=O)NS(C)(=O)=O)cc3)CC2)c1 [B2I069-01] | 0.0% | −2.2% |
| CCOc1cncc(C#Cc2ccccc2CN2CCN(c3ccc(C(=O)NS(C)(=O)=O)cc3)CC2)c1 [B2I070-01, 4-[4-[[2-[2-(5-Ethoxypyridin-3-yl)ethynyl]phenyl]methyl]piperazin-1-yl]-N-methylsulfonylbenzamide] |  | 0.0% |
| CCOc1cccc(-c2ccccc2CN2CCN(c3ccc(C(=O)NS(C)(=O)=O)nn3)CC2)c1 [B2I071-01, 6-[4-[[2-(3-Ethoxyphenyl)phenyl]methyl]piperazin-1-yl]-N-methylsulfonylpyridazine-3-carboxamide] | −1.2% | −1.9% |
| CCOc1cncc(-c2ccccc2CN2CCN(c3ccc(C(=O)NS(C)(=O)=O)nn3)CC2)c1 [B2I072-01, 6-[4-[[2-(5-Ethoxypyridin-3-yl)phenyl]methyl]piperazin-1-yl]-N-methylsulfonylpyridazine-3-carboxamide] | 0.8% | 1.3% |
| CCOc1cccc(-c2ccc(CN3CCN(c4ccc(C(=O)NS(C)(=O)=O)nn4)CC3)cc2C)c1 [B2I073-01, 6-[4-[[4-(3-Ethoxyphenyl)-3-methylphenyl]methyl]piperazin-1-yl]-N-methylsulfonylpyridazine-3-carboxamide] | 0.0% | 0.0% |
| CCOc1cncc(-c2ccc(CN3CCN(c4ccc(C(=O)NS(C)(=O)=O)nn4)CC3)cc2C)c1 [B2I074-01, 6-[4-[[4-(5-Ethoxypyridin-3-yl)-3-methylphenyl]methyl]piperazin-1-yl]-N-methylsulfonylpyridazine-3-carboxamide] | 0.0% | −8.4% |
| CCOc1cccc(-c2ccc(CN3CCN(c4ccc(C(=O)NS(C)(=O)=O)nn4)CC3)c(CC)c2)c1 [B2I075-01] | 0.0% | 0.0% |
| CCOc1cncc(-c2ccc(CN3CCN(c4ccc(C(=O)NS(C)(=O)=O)nn4)CC3)c(CC)c2)c1 [B2I076-01, 6-[4-[[4-(5-Ethoxypyridin-3-yl)-2-ethylphenyl]methyl]piperazin-1-yl]-N-methylsulfonylpyridazine-3-carboxamide] | 0.2% | −3.2% |
| CCOc1cccc(-c2ccc(CN3CCN(c4ccc(C(=O)NS(C)(=O)=O)nn4)CC3)cc2F)c1 [B2I077-01, 6-[4-[[4-(3-Ethoxyphenyl)-3-fluorophenyl]methyl]piperazin-1-yl]-N-methylsulfonylpyridazine-3-carboxamide] | 0.0% | 0.0% |
| CCOc1cncc(-c2ccc(CN3CCN(c4ccc(C(=O)NS(C)(=O)=O)nn4)CC3)cc2F)c1 [B2I078-01] | 0.0% | 0.0% |
| CCOc1cccc(-c2ccc(CN3CCN(c4ccc(C(=O)NS(C)(=O)=O)nn4)CC3)c(OC)c2)c1 [B2I079-01, 6-[4-[[4-(3-Ethoxyphenyl)-2-methoxyphenyl]methyl]piperazin-1-yl]-N-methylsulfonylpyridazine-3-carboxamide] | 0.0% | 0.0% |
| CCOc1cncc(-c2ccc(CN3CCN(c4ccc(C(=O)NS(C)(=O)=O)nn4)CC3)c(OC)c2)c1 [B2I080-01, 6-[4-[[4-(5-Ethoxypyridin-3-yl)-2-methoxyphenyl]methyl]piperazin-1-yl]-N-methylsulfonylpyridazine-3-carboxamide] | 0.0% |  |
| CCOc1cccc(-c2cc(CN3CCN(c4ccc(C(=O)NS(C)(=O)=O)nn4)CC3)cc(OCC)c2)c1 [B2I081-01] | 0.0% | 0.0% |
| CCOc1cncc(-c2cc(CN3CCN(c4ccc(C(=O)NS(C)(=O)=O)nn4)CC3)cc(OCC)c2)c1 [B2I082-01, 6-[4-[[3-Ethoxy-5-(5-ethoxypyridin-3-yl)phenyl]methyl]piperazin-1-yl]-N-methylsulfonylpyridazine-3-carboxamide] | 0.0% | 1.9% |
| CCOc1cccc(-c2cc(CN3CCN(c4ccc(C(=O)NS(C)(=O)=O)nn4)CC3)cc(OC(C)C)c2)c1 [B2I083-01, 6-[4-[[3-(3-Ethoxyphenyl)-5-propan-2-yloxyphenyl]methyl]piperazin-1-yl]-N-methylsulfonylpyridazine-3-carboxamide] | 0.0% | 0.0% |
| CCOc1cncc(-c2cc(CN3CCN(c4ccc(C(=O)NS(C)(=O)=O)nn4)CC3)cc(OC(C)C)c2)c1 [B2I084-01] | −0.9% | −1.5% |
| CCOc1cccc(-c2cc(OC)c(CN3CCN(c4ccc(C(=O)NS(C)(=O)=O)nn4)CC3)c(OC)c2)c1 [B2I085-01, 6-[4-[[4-(3-Ethoxyphenyl)-2,6-dimethoxyphenyl]methyl]piperazin-1-yl]-N-methylsulfonylpyridazine-3-carboxamide] | 0.0% | 0.0% |
| CCOc1cncc(-c2cc(OC)c(CN3CCN(c4ccc(C(=O)NS(C)(=O)=O)nn4)CC3)c(OC)c2)c1 [B2I086-01, 6-[4-[[4-(5-Ethoxypyridin-3-yl)-2,6-dimethoxyphenyl]methyl]piperazin-1-yl]-N-methylsulfonylpyridazine-3-carboxamide] | 0.0% | 0.0% |
| CCOc1cccc(-c2cc(CN3CCN(c4ccc(C(=O)NS(C)(=O)=O)nn4)CC3)cc(C(F)(F)F)c2)c1 [B2I087-01, 6-[4-[[3-(3-Ethoxyphenyl)-5-(trifluoromethyl)phenyl]methyl]piperazin-1-yl]-N-methylsulfonylpyridazine-3-carboxamide] | 1.3% | −0.9% |
| CCOc1cncc(-c2cc(CN3CCN(c4ccc(C(=O)NS(C)(=O)=O)nn4)CC3)cc(C(F)(F)F)c2)c1 [B2I088-01, 6-[4-[[3-(5-Ethoxypyridin-3-yl)-5-(trifluoromethyl)phenyl]methyl]piperazin-1-yl]-N-methylsulfonylpyridazine-3-carboxamide] | 0.0% | 0.0% |
| CCOc1cccc(-c2cc(CN3CCN(c4ccc(C(=O)NS(C)(=O)=O)nn4)CC3)cc(OC(F)(F)F)c2)c1 [B2I089-01, 6-[4-[[3-(3-Ethoxyphenyl)-5-(trifluoromethoxy)phenyl]methyl]piperazin-1-yl]-N-methylsulfonylpyridazine-3-carboxamide] | 1.4% | 0.0% |
| CCOc1cncc(-c2cc(CN3CCN(c4ccc(C(=O)NS(C)(=O)=O)nn4)CC3)cc(OC(F)(F)F)c2)c1 [B2I090-01, 6-[4-[[3-(5-Ethoxypyridin-3-yl)-5-(trifluoromethoxy)phenyl]methyl]piperazin-1-yl]-N-methylsulfonylpyridazine-3-carboxamide] | 0.0% | 0.0% |
| CCOc1cncc(-c2ccc(CN3CCN(c4ccc(C(=O)NS(C)(=O)=O)nn4)CC3)c3ccccc23)c1 [B2I092-01, 6-[4-[[4-(5-Ethoxypyridin-3-yl)naphthalen-1-yl]methyl]piperazin-1-yl]-N-methylsulfonylpyridazine-3-carboxamide] | 2.6% | 0.3% |
